Legend:
Assay type in all cases: cell-based
[1] = tested on: Resistant Enterococcus faecium and faecalis; experiment: MIC, standard broth micro-dilution assay, Resistant; conditions: geometric mean of 4-6 isolates
Protocol: (§1) The antibacterial efficacy of the present compounds is illustrated by Table III. The minimal inhibitory concentrations (MICs) were determined using a standard broth micro-dilution assay.

[2] = tested on: Sensitive Enterococcus faecium and faecalis; experiment: MIC, standard broth micro-dilution assay, Sensitive; conditions: geometric mean of 4-6 isolates
Protocol: as §1

[3] = tested on: Staphylococcus aureus 446; experiment: MIC, standard broth micro-dilution assay, SA 446
Protocol: as §1

[4] = tested on: Staphylococcus aureus 489; experiment: MIC, standard broth micro-dilution assay, SA 489
Protocol: as §1

[5] = tested on: Staphylococcus aureus 447; experiment: MIC, standard broth micro-dilution assay, SA 447
Protocol: as §1

[6] = tested on: Staphylococcus aureus X400; experiment: MIC, standard broth micro-dilution assay, SA X400
Protocol: as §1

[7] = tested on: Staphylococcus aureus X778; experiment: MIC, standard broth micro-dilution assay, SA X778
Protocol: as §1

[8] = tested on: Staphylococcus aureus 491; experiment: MIC, standard broth micro-dilution assay, SA 491
Protocol: as §1

[9] = tested on: Staphylococcus aureus S13E
Protocol: as §1

[10] = tested on: Staphylococcus aureus SA1199; experiment: MIC, standard broth micro-dilution assay, SA 1199
Protocol: as §1

[11] = tested on: Staphylococcus aureus SA1199A; experiment: MIC, standard broth micro-dilution assay, SA 1199A
Protocol: as §1

[12] = tested on: Staphylococcus haemolyticus 105; experiment: MIC, standard broth micro-dilution assay, SH 105
Protocol: as §1

[13] = tested on: Staphylococcus haemolyticus 415; experiment: MIC, standard broth micro-dilution assay, SH 415
Protocol: as §1

[14] = tested on: Staphylococcus epidermidis 270; experiment: MIC, standard broth micro-dilution assay, SE 270
Protocol: as §1

Enterococcus faecium 180 = experiment: MIC, standard broth micro-dilution assay, EF 180
Protocol: as §1

[15] = tested on: Enterococcus faecium 180-1; experiment: MIC, standard broth micro-dilution assay, EF 180-1
Protocol: as §1

[16] = tested on: Enterococcus faecalis 2041; experiment: MIC, standard broth micro-dilution assay, EF 2041
Protocol: as §1

[17] = tested on: Enterococcus faecalis 276; experiment: MIC, standard broth micro-dilution assay, EF 276
Protocol: as §1

[18] = tested on: Enterococcus gallinarum 245; experiment: MIC, standard broth micro-dilution assay, EG 245
Protocol: as §1

[19] = tested on: Haemophilus influenzae RD; experiment: MIC, standard broth micro-dilution assay, HFRD
Protocol: as §1

Escherichia coli EC14 = experiment: MIC, standard broth micro-dilution assay, EC 14
Protocol: as §1

For `CC(C)CCC(=O)NC1C(=O)NC(CC(N)=O)C(=O)NC2C(=O)NC3C(=O)NC(C(=O)NC(C(=O)O)c4cc(O)cc(O)c4-c4cc3ccc4O)C(OC3CC(C)(N)C(O)C(C)O3)c3ccc(c(Cl)c3)Oc3cc2cc(c3OC2OC(CO)C(O)C(O)C2OC2CC(C)(NCc3ccc(-c4ccccc4)cc3)C(O)C(C)O2)Oc2ccc(cc2Cl)C1O` (stereo not drawn) [Example 5, N^1-(4-methyl-n-pentanoyl)-N^DISACC-(p-phenylbenzyl)desleucylA82846B], the “minimal inhibitory concentration (MIC), Resistant” value [1] was 27, the “minimal inhibitory concentration (MIC), Sensitive” value [2] was 0.44 and the “minimal inhibitory concentration (MIC), SA 446” value [3] was 0.125. The “minimal inhibitory concentration (MIC), SA 489” value [4] was 0.125, the “minimal inhibitory concentration (MIC), SA 447” value [5] was “≦.06” and the “minimal inhibitory concentration (MIC), SA X400” value [6] was “≦.06”. For the same compound, the “minimal inhibitory concentration (MIC), SA X778” value [7] was 0.125, the “minimal inhibitory concentration (MIC), SA 491” value [8] was “≦.06” and the “minimal inhibitory concentration (MIC), SA S13E” value [9] was 0.125. For the same compound, the “minimal inhibitory concentration (MIC), SA 1199” value [10] was 0.25, the “minimal inhibitory concentration (MIC), SA 1199A” value [11] was “≦.06” and the “minimal inhibitory concentration (MIC), SH 105” value [12] was “≦.06”. The “minimal inhibitory concentration (MIC), SH 415” value [13] was 1, the “minimal inhibitory concentration (MIC), SE 270” value [14] was 0.25 and the “minimal inhibitory concentration (MIC), EF 180” value (Enterococcus faecium 180) was 4. The “minimal inhibitory concentration (MIC), EF 180-1” value [15] was “≦.06”, the “minimal inhibitory concentration (MIC), EF 2041” value [16] was “≦.06” and the “minimal inhibitory concentration (MIC), EF 276” value [17] was 1. For the same compound, the “minimal inhibitory concentration (MIC), EG 245” value [18] was 0.25, the “minimal inhibitory concentration (MIC), HFRD” value [19] was over 64 and the “minimal inhibitory concentration (MIC), EC 14” value (Escherichia coli EC14) was over 64.
For `CC(C)CC(N)C(=O)NC1C(=O)NC(CC(N)=O)C(=O)NC2C(=O)NC3C(=O)NC(C(=O)NC(C(=O)O)c4cc(O)cc(O)c4-c4cc3ccc4O)C(OC3CC(C)(N)C(O)C(C)O3)c3ccc(c(Cl)c3)Oc3cc2cc(c3OC2OC(CO)C(O)C(O)C2OC2CC(C)(NCc3ccc(-c4ccccc4)cc3)C(O)C(C)O2)Oc2ccc(cc2Cl)C1O` [Example 27, N^1-L-leucine derivative of N^DISACC-(p-phenylbenzyl)desleucylA82846B], the “minimal inhibitory concentration (MIC), Resistant” value [1] was 16, the “minimal inhibitory concentration (MIC), Sensitive” value [2] was 1 and the “minimal inhibitory concentration (MIC), SA 446” value [3] was 2. The “minimal inhibitory concentration (MIC), SA 489” value [4] was 4, the “minimal inhibitory concentration (MIC), SA 447” value [5] was 1 and the “minimal inhibitory concentration (MIC), SA X400” value [6] was 2. For the same compound, the “minimal inhibitory concentration (MIC), SA X778” value [7] was 1, the “minimal inhibitory concentration (MIC), SA 491” value [8] was 1 and the “minimal inhibitory concentration (MIC), SA S13E” value [9] was 2. For the same compound, the “minimal inhibitory concentration (MIC), SA 1199” value [10] was 1, the “minimal inhibitory concentration (MIC), SA 1199A” value [11] was 0.5 and the “minimal inhibitory concentration (MIC), SH 105” value [12] was 0.125. For the same compound, the “minimal inhibitory concentration (MIC), SH 415” value [13] was 2, the “minimal inhibitory concentration (MIC), SE 270” value [14] was 0.25 and the “minimal inhibitory concentration (MIC), EF 180” value (Enterococcus faecium 180) was 4. For the same compound, the “minimal inhibitory concentration (MIC), EF 180-1” value [15] was 0.25, the “minimal inhibitory concentration (MIC), EF 2041” value [16] was 1 and the “minimal inhibitory concentration (MIC), EF 276” value [17] was 1. The “minimal inhibitory concentration (MIC), EG 245” value [18] was 0.5, the “minimal inhibitory concentration (MIC), HFRD” value [19] was 64 and the “minimal inhibitory concentration (MIC), EC 14” value (Escherichia coli EC14) was over 64.
`CC1OC(OC2c3ccc(c(Cl)c3)Oc3cc4cc(c3OC3OC(CO)C(O)C(O)C3OC3CC(C)(NCc5ccc(-c6ccccc6)cc5)C(O)C(C)O3)Oc3ccc(cc3Cl)C(O)C(NC(=O)C3CCCN3C(=O)OC(C)(C)C)C(=O)NC(CC(N)=O)C(=O)NC4C(=O)NC3C(=O)NC2C(=O)NC(C(=O)O)c2cc(O)cc(O)c2-c2cc3ccc2O)CC(C)(N)C1O` [Example 29, N^1-(N-BOC-L-proline) derivative of N^DISACC-(p-phenylbenzyl)desleucylA82846B] was tested, and the “minimal inhibitory concentration (MIC), Resistant” value [1] was 27, the “minimal inhibitory concentration (MIC), Sensitive” value [2] was 1.2 and the “minimal inhibitory concentration (MIC), SA 446” value [3] was 2. The “minimal inhibitory concentration (MIC), SA 489” value [4] was 0.25, the “minimal inhibitory concentration (MIC), SA 447” value [5] was 0.5 and the “minimal inhibitory concentration (MIC), SA X400” value [6] was 0.25. For the same compound, the “minimal inhibitory concentration (MIC), SA X778” value [7] was 0.125, the “minimal inhibitory concentration (MIC), SA 491” value [8] was “≦.06” and the “minimal inhibitory concentration (MIC), SA S13E” value [9] was 0.5. For the same compound, the “minimal inhibitory concentration (MIC), SA 1199” value [10] was 0.125, the “minimal inhibitory concentration (MIC), SA 1199A” value [11] was “≦.06” and the “minimal inhibitory concentration (MIC), SH 105” value [12] was 0.125. The “minimal inhibitory concentration (MIC), SH 415” value [13] was 0.5, the “minimal inhibitory concentration (MIC), SE 270” value [14] was “≦.06” and the “minimal inhibitory concentration (MIC), EF 180” value (Enterococcus faecium 180) was 4. The “minimal inhibitory concentration (MIC), EF 180-1” value [15] was “≦.06”, the “minimal inhibitory concentration (MIC), EF 2041” value [16] was 0.125 and the “minimal inhibitory concentration (MIC), EF 276” value [17] was 0.25. The “minimal inhibitory concentration (MIC), EG 245” value [18] was 2, the “minimal inhibitory concentration (MIC), HFRD” value [19] was over 64 and the “minimal inhibitory concentration (MIC), EC 14” value (Escherichia coli EC14) was over 64.
In the case of `CC1OC(OC2c3ccc(c(Cl)c3)Oc3cc4cc(c3OC3OC(CO)C(O)C(O)C3OC3CC(C)(NCc5ccc(-c6ccc(Cl)cc6)cc5)C(O)C(C)O3)Oc3ccc(cc3Cl)C(O)C(NC(=O)CCCCCCCc3ccccc3)C(=O)NC(CC(N)=O)C(=O)NC4C(=O)NC3C(=O)NC2C(=O)NC(C(=O)O)c2cc(O)cc(O)c2-c2cc3ccc2O)CC(C)(N)C1O` (stereo not drawn) [Example 8, N^1-(8-phenyl-n-octanoyl)-N^DISACC-[p-(p-chlorophenyl)benzyl]desleucylA82846B], the “minimal inhibitory concentration (MIC), Resistant” value [1] is reported as 4, the “minimal inhibitory concentration (MIC), Sensitive” value [2] is reported as 2 and the “minimal inhibitory concentration (MIC), SA 446” value [3] is reported as 16. For the same compound, the “minimal inhibitory concentration (MIC), SA 489” value [4] was 8, the “minimal inhibitory concentration (MIC), SA 447” value [5] was 8 and the “minimal inhibitory concentration (MIC), SA X400” value [6] was 8. The “minimal inhibitory concentration (MIC), SA X778” value [7] was 4, the “minimal inhibitory concentration (MIC), SA 491” value [8] was 4 and the “minimal inhibitory concentration (MIC), SA S13E” value [9] was 8. The “minimal inhibitory concentration (MIC), SA 1199” value [10] was 4, the “minimal inhibitory concentration (MIC), SA 1199A” value [11] was 2 and the “minimal inhibitory concentration (MIC), SH 105” value [12] was 2. The “minimal inhibitory concentration (MIC), SH 415” value [13] was 8, the “minimal inhibitory concentration (MIC), SE 270” value [14] was 8 and the “minimal inhibitory concentration (MIC), EF 180” value (Enterococcus faecium 180) was 2. For the same compound, the “minimal inhibitory concentration (MIC), EF 180-1” value [15] was 1, the “minimal inhibitory concentration (MIC), EF 2041” value [16] was 2 and the “minimal inhibitory concentration (MIC), EF 276” value [17] was 1. The “minimal inhibitory concentration (MIC), EG 245” value [18] was 2, the “minimal inhibitory concentration (MIC), HFRD” value [19] was over 64 and the “minimal inhibitory concentration (MIC), EC 14” value (Escherichia coli EC14) was over 64.
With `CC(C)CC(NC(=O)OC(C)(C)C)C(=O)NC1C(=O)NC(CC(N)=O)C(=O)NC2C(=O)NC3C(=O)NC(C(=O)NC(C(=O)O)c4cc(O)cc(O)c4-c4cc3ccc4O)C(OC3CC(C)(N)C(O)C(C)O3)c3ccc(c(Cl)c3)Oc3cc2cc(c3OC2OC(CO)C(O)C(O)C2OC2CC(C)(NCc3ccc(-c4ccccc4)cc3)C(O)C(C)O2)Oc2ccc(cc2Cl)C1O` [Example 11, N^1-(N-BOC-L-leucine) derivative of N^DISACC-(p-phenylbenzyl)desleucylA82846B] the “minimal inhibitory concentration (MIC), Resistant” value [1] was 45, the “minimal inhibitory concentration (MIC), Sensitive” value [2] was 1.7 and the “minimal inhibitory concentration (MIC), SA 446” value [3] was 1. For the same compound, the “minimal inhibitory concentration (MIC), SA 489” value [4] was 2, the “minimal inhibitory concentration (MIC), SA 447” value [5] was 1 and the “minimal inhibitory concentration (MIC), SA X400” value [6] was 1. For the same compound, the “minimal inhibitory concentration (MIC), SA X778” value [7] was 0.5, the “minimal inhibitory concentration (MIC), SA 491” value [8] was 2 and the “minimal inhibitory concentration (MIC), SA S13E” value [9] was 1. The “minimal inhibitory concentration (MIC), SA 1199” value [10] was 1, the “minimal inhibitory concentration (MIC), SA 1199A” value [11] was 1 and the “minimal inhibitory concentration (MIC), SH 105” value [12] was 0.5. The “minimal inhibitory concentration (MIC), SH 415” value [13] was 1, the “minimal inhibitory concentration (MIC), SE 270” value [14] was 0.5 and the “minimal inhibitory concentration (MIC), EF 180” value (Enterococcus faecium 180) was 8. For the same compound, the “minimal inhibitory concentration (MIC), EF 180-1” value [15] was 0.25, the “minimal inhibitory concentration (MIC), EF 2041” value [16] was 1 and the “minimal inhibitory concentration (MIC), EF 276” value [17] was 2. For the same compound, the “minimal inhibitory concentration (MIC), EG 245” value [18] was 1, the “minimal inhibitory concentration (MIC), HFRD” value [19] was over 64 and the “minimal inhibitory concentration (MIC), EC 14” value (Escherichia coli EC14) was over 64.

Source: patent US6670446B1, “N1 modified glycopeptides” (Eli Lilly and Company, priority 1998, dated 2003)
